Reference: BigSolDB 2.1

C[C@H](N)C(=O)O
solubility (mole fraction)
Details	283.15 K	293.15 K	303.15 K	313.15 K	323.15 K
in acetone	7.1e-05	0.000116	0.000138	0.000166	0.000202
in acetonitrile	7.6e-05	0.000121	0.000157	0.000178	0.000209
in ethanol	0.000193	0.000226	0.000244	0.000251	0.00027
in ethyl acetate	7.8e-05	0.00014	0.00016	0.00018	0.000217
in isobutanol	0.000294	0.000314	0.000332	0.000346	0.000361
in isopropanol	8.2e-05	0.000144	0.000174	0.00019	0.000245
in methanol	0.000407	0.000428	0.00049	0.000531	0.00062
in n-butanol	0.000414	0.000449	0.000517	0.000611	0.000895
in n-pentanol	0.000216	0.000253	0.00032	0.000382	0.000465
in n-propanol	0.000122	0.000215	0.000261	0.000313	0.000452
in sec-butanol	0.000297	0.000333	0.000407	0.000552	0.000734
in water	0.0279	0.0308	0.0342	0.038	0.042
